Assay results as given in EP0151577B1 (priority 1983, dated 1984).

Tests used:
souris [1] = test: Tremor score in mice pretreated with a MAO inhibitor (Harmaline); type: in vivo; conditions: for Score total (tremblements): Harmaline pretreatment, 5 souris
Experimental: Les conditions expérimentales étaient les suivantes:
Chez des souris prétraitées par un inhibiteur de la MAO (Harmaline 25 mg/kg/ P.O.), I'injection de 5HTP (1 heure après l'IMAO) entraîne l'apparition de tremblements plus ou moins généralisés, accompagnés ou non d'hyperactivité motrice et qui sont dus a I'accumulation de sérotonine non dégradée au niveau des récepteurs post-synaptiques cérébraux. On peut établir pour chaque souris une cotation chiffrée suivant l'intensité des symptômes observes au cours du temps (cotation toutes les 5 min. entre la 5ème et la 45ème min. après I'injection de 5 HTP puis toutes les 15 min. jusqu'à la 75ème min.).
On additionne en une score total tous les chiffres obtenus aux différents temps sur des lots de 5 ou 10 souris.
Les actions du 5 HTP ont été comparées a celles du DF-5HTP.

[2] = Solubility in water and organic solvents; type: physicochemical
Text: II est insoluble dans le benzene, l'acetate d'ethyle et le chloroforme.

Rythme cardiaque = test: Cardiovascular activity: heart rate; type: in vivo
Text: (§1) Le protocole experimental était celui décrit dans "Sugar Derivatives of Indolamines. part V: Cardiovascular Effects and "Anti-stress" Activity of Desoxyfructose Derivative of Serotonin and 5-Metho-xy- tryptamin", L. Mester, M. Mester, K.P. Bhargava, C. Labrid, G. Dureng and M. Cheucle, THROMBOSIS […], 15,245,1979.

souris [3] = test: Anti-stress activity: swimming endurance; type: in vivo; conditions: 174 mg/kg i.p., souris observed up to 540 min; témoins 385 ± 31 min
Experimental: Au tableau 4, la lettre N designe le nombre d'animaux (souris). Un astérisque indique une activite importante. Deux astérisques indiquent une possibilité d'activité positive. Dans I'essai d'endurance a la nage, on a observe les souris jusqu'à 540 minutes, la durée moyenne de nage pour les souris témoins étant de 385 ± 31 minutes.
(N) - représente le nombre d'animaux * - activité importante ** - activite positive possible Pour I'endurance a la nage, les souris ont été observées jusqu'à 540 min, la durée moyenne de nage chez les souris témoins était de 385 + 31 min. *** - La leucocytose a été induite par 0,1 ml de lait (sous-cutanée) avant traitement avec le medicament.

Tension sanguine = test: Cardiovascular activity: blood pressure; type: in vivo
Text: as §1

souris [4] = test: Anti-stress activity: milk-induced leucocytosis; type: in vivo; conditions: 174 mg/kg i.p.; 0,1 ml de lait s.c. before treatment; lait seulement 23866 ± 214
[5] = tested on: réponse à l'obstruction de la carotide; test: Cardiovascular activity: response to carotid occlusion (CO); type: in vivo
Text: as §1

[6] = tested on: 5-HT (dans tout le cerveau); test: Amount of serotonin (5-HT) in whole brain, spectrophotofluorometric; type: in vivo, souris
Text: Les quantités de sérotonine ont été estimees par une méthode spectrophotofluorométrique, telle que décrite par Solomon et al. Biochem. Pharmacology 14, 831 (1965). Les résultats de ces essais sont rassemblés dans le Tableau 10 ci-après.
• * Chaque valeur représente la moyenne de quatre animaux d'experience (souris) • ** La concentration de 5-HT est exprimée par gramme de tissu frais (cerveau).

M. Leprae = test: Multiplication of M. leprae in mouse foot pads; type: in vivo, Mycobacterium leprae; conditions: 20 mg/kg par voie orale, daily from inoculation
Experimental: Le tableau 7 contient les résultats d'essai concernant l'activité du DF-5HTP sur les M. leprae sur les pattes de souris. Le protocole experimental était le suivant:
MESTER, L., and BALAKRISHNAN, S., Desoxyfructo-serotonin: First Human Metabolite with Antileprosy Activity. Acta Lepr. N°83, 21, 1981.
La dose de DF-5HTP était de 0,5 mg par 5 g de nourriture et par souris. Cette dose était administrée tous les jours a partir de la date d'inoculation. Les essais ont porté sur un lot de 24 souris.
Protocole: Sur la patte de chaque souris on a inoculé 5 x 10^6 M.leprae montrant un index morphologique (I. M.) = 2 %. Les chiffres suivis par X indiquent la multiplication de M. leprae initialement inoculé. (Pour la méthode utilisée voir MESTER, L., and BALAKRISHNAN, S., Desoxyfructo-serotonin: First Human Metabolite with Antileprosy Activity, Acta Lepr. N° 83, 21,1981.

souris [7] = test: Pentobarbital sleeping time; type: in vivo
Experimental: Les mesures ont été faites a 15, 30 et 60 minutes après I'administration par voie intrapéritonéale (i.p.) a des souris.

rat = test: Anti-stress activity: restraint ulcer in the rat; type: in vivo; conditions: 174 mg/kg i.p.
Text: BONFILS, S., LIEFOOGHE, GK, ROSSI, G. and LAMBLING, A. L'ulcère de contrainte du Rat blanc. Modifications de la fréquence lesionnelle par différents precedes opératoires et pharmacodynamiques. C.R. Soc. Biol., 151, 1149, 1957.
BONFILS, S., ROSSI, G., LIEFOOGHE, G. and LAMBLING, A., Ulcère experimental de contrainte, I. Méthodes, fréquence des lesions, modifications par certains precedes techniques et pharmacologiques. Rev. franç. Etudes clin. biol., 4,146, 1959.

[8] = tested on: cellules des neuroblastomes; test: Inhibition of serotonin incorporation into neuroblastoma cells in vitro; type: cell-based; conditions: 0°C
[9] = 10 mg par voie cérébroventriculaire

With `O=C(O)C(Cc1c[nH]c2ccc(O)cc12)NCC1(O)OCC(O)C(O)C1O` (stereo not shown) [DF-5HTP, N-1-desoxyfructo-5-hydroxytryptophane] the “Score total (tremblements)” value (souris [1]; 150 mg/kg S.C. (mole for mole 75 mg/kg of 5 HTP)) was 0, the “Score total (tremblements)” value (souris [1]; 500 mg/kg S.C.) was 0 and the “activité dans l'essai des tremblements” value (souris [1]; souris pretreated with Harmaline, overall statement) was “inactif”. For the same molecule, the “solubilité dans le benzene, l'acetate d'ethyle et le chloroforme” value ([2]; benzene, acetate d'ethyle, chloroforme) was “insoluble”, the “soluble dans I'eau” value ([2]; eau) was “facilement soluble” and the “Rythme cardiaque Durée (min)” value (Rythme cardiaque; [9]) was “non mani-festée à 150”. For the same molecule, the “Rythme cardiaque Mesure à” value (Rythme cardiaque; [9]) was 30 min, the “Rythme cardiaque Pic” value (Rythme cardiaque; [9]) was 75 min and the “Rythme cardiaque Durée” value (Rythme cardiaque; 100 mg par voie intraveineuse) was 45 min. The “Rythme cardiaque Mesure à” value (Rythme cardiaque; 100 mg par voie intraveineuse) was 5 min, the “Rythme cardiaque Pic” value (Rythme cardiaque; 100 mg par voie intraveineuse) was 10 min and the “Endurance à la nage % d'augmentation” value (souris [3]) was 40^** %. For the same molecule, the “Tension sanguine Durée” value (Tension sanguine; [9]) was 50 min, the “Tension sanguine Mesure à” value (Tension sanguine; [9]) was 1 min and the “Tension sanguine Pic” value (Tension sanguine; [9]) was 5 min. For the same molecule, the “Tension sanguine Durée” value (Tension sanguine; 100 mg par voie intraveineuse) was 30 min, the “Tension sanguine Mesure à (min)” value (Tension sanguine; 100 mg par voie intraveineuse) was “immé-diat” and the “Tension sanguine Pic” value (Tension sanguine; 100 mg par voie intraveineuse) was 1 min. For the same molecule, the “Effet sur la leu-cocytose induite par le lait Moyenne T.L.C./Cmm” value (souris [4]) was 10468 ± 130 (8) /Cmm, the “REPONSE CO Durée” value [5, 9] was 120 min and the “REPONSE CO Mesure à” value [5, 9] was 30 min. For the same molecule, the “REPONSE CO Pic” value [5, 9] was 30 min, the “REPONSE CO Durée” value ([5]; 100 mg par voie intraveineuse) was 45 min and the “REPONSE CO Mesure à” value ([5]; 100 mg par voie intraveineuse) was 1 min. For the same molecule, the “REPONSE CO Pic” value ([5]; 100 mg par voie intraveineuse) was 1 min, the “Quantités de 5-HT (dans tout le cerveau)” value ([6]; 100 mg/kg i.p., 15 min., Solution Saline 60,0, mean of 4 souris) was 87,5 and the “Quantités de 5-HT (dans tout le cerveau)” value ([6]; 174 mg/kg i.p., 15 min., Solution Saline 60,0, mean of 4 souris) was 75,0. The “Quantités de 5-HT (dans tout le cerveau)” value ([6]; 174 mg/kg i.p., 30 min., par gramme de tissu frais, Solution Saline 107) was 200,4, the “Quantités de 5-HT (dans tout le cerveau)” value ([6]; 174 mg/kg i.p., 60 min., par gramme de tissu frais, Solution Saline 100) was 160,8 and the “multiplication de M. Leprae sur les pattes des souris” value (M. Leprae; 4 mois après inoculation, témoins 33,8 X) was 2,8 X. The “multiplication de M. Leprae sur les pattes des souris” value (M. Leprae; 6 mois après inoculation, témoins 38,4 X) was “Négatif”, the “Temps de sommeil au pentobarbital % du témoin (témoin =100)” value (souris [7]; 100 mg/kg (ip), 15 min, Tableau 2) was 140 % du témoin and the “Temps de sommeil au pentobarbital % du témoin (témoin =100)” value (souris [7]; 100 mg/kg (ip), 30 min) was 114 % du témoin. The “Temps de sommeil au pentobarbital % du témoin (témoin =100)” value (souris [7]; 100 mg/kg (ip), 60 min) was 103 % du témoin, the “Temps de sommeil au pentobarbital % du témoin (témoin =100)” value (souris [7]; 174 mg/kg (ip), 15 min) was 93 % du témoin and the “Temps de sommeil au pentobarbital % du témoin (témoin =100)” value (souris [7]; 174 mg/kg (ip), 30 min) was 95 % du témoin. For the same molecule, the “Temps de sommeil au pentobarbital % du témoin (témoin =100)” value (souris [7]; 174 mg/kg (ip), 60 min) was 91 % du témoin, the “Effet anti-ulcère chez le rat (18 heures sous contrainte) Indice d'Ul-cération” value (rat; témoin 34) was 10^**(4) and the “Effet anti-ulcère chez le rat (18 heures sous contrainte) % Ul-cération” value (rat; témoin 90) was 50%. The “% Inhibition à 0°C de l'incorporation de la sérotonine dans les cellules nerveuses” value [8] was 50%.
